Experimental data from paper PMC10196118, “Evidence for broad cross-reactivity of the SARS-CoV-2 NSP12-directed CD4^+ T-cell response with pre-primed responses directed against common cold coronaviruses” (Frontiers in Immunology, 2023).

Tested on: pre-cultured PBMCs (NSP12-specific T cells)
Test: IFN-γ ELISpot with single 15-mer peptides after 11–13 days in vitro peptide-pool T-cell expansion
Type: cell-based, human
Conditions: single NSP12 15-mer peptides; for peptide-specific response, donor HH-N12-18, post COVID-19 / peptide-specific response, donor HH-N12-34, post COVID-19 / peptide-specific response, donor HH-N12-35, post COVID-19 / peptide-specific response, donor HH-N12-36, post COVID-19 / peptide-specific response, donor HH-N12-37, post COVID-19: sample post COVID-19; for peptide-specific response, donor HH-N12-18, pre COVID-19 / peptide-specific response, donor HH-N12-34, pre COVID-19 / peptide-specific response, donor HH-N12-35, pre COVID-19 / peptide-specific response, donor HH-N12-36, pre COVID-19 / peptide-specific response, donor HH-N12-37, pre COVID-19: sample pre COVID-19

Sequence	peptide-specific response, donor HH-N12-18, post COVID-19	peptide-specific response, donor HH-N12-18, pre COVID-19	peptide-specific response, donor HH-N12-34, post COVID-19	peptide-specific response, donor HH-N12-34, pre COVID-19	peptide-specific response, donor HH-N12-35, post COVID-19	peptide-specific response, donor HH-N12-35, pre COVID-19	peptide-specific response, donor HH-N12-36, post COVID-19	peptide-specific response, donor HH-N12-36, pre COVID-19	peptide-specific response, donor HH-N12-37, post COVID-19	peptide-specific response, donor HH-N12-37, pre COVID-19
FFKFRIDGDMVPHIS [compound 21]	0	0	0	0	0	0	0	0	0	0
FQEKDEDDNLIDSYF [compound 12]	0	0	0	0	0	0	0	0	0	0
HVDTDLTKPYIKWDL [compound 52]	0	0	0	0	0	0	0	0	0.022	0
IDSYFVVKRHTFSNY [compound 14]	0	0	0	0	0	0	0	0	0	0
IYNLLKDCPAVAKHD [compound 18]	0	0	0	0	0	0	0	0	0.023	0
KDCPAVAKHDFFKFR [compound 19]	0	0	0	0	0	0	0	0	0	0
KLFDRYFKYWDQTYH [compound 57]	0	0	0	0	0	0	0.029	0	0	0
LKYDFTEERLKLFDR [compound 55]	0	0	0	0	0	0	0	0	0	0
LLKTVQFCDAMRNAG [compound 38]	0	0	0	0	0	0	0	0	0	0
LTAESHVDTDLTKPY [compound 51]	0	0	0	0	0	0	0	0.05	0	0
LTKPYIKWDLLKYDF [compound 53]	0.021	0.02	0	0	0	0	0	0	0	0
LVLARKHTTCCSLSH [compound 128]	0	0	0	0	0	0	0	0	0	0
LYRNRDVDTDFVNEF [compound 147]	0	0	0	0	0	0	0	0	0	0
